{"source": "paper PMC7949159", "about": "“Optimized binding of substituted quinoline ALLINIs within the HIV-1 integrase oligomer” (The Journal of Biological Chemistry, 2021)", "key": {"[1]": {"biological_target": "T1, HIV-1 IN (full-length, His-tagged and FLAG-tagged) (Human immunodeficiency virus type 1 group M subtype B, UniProt P12497)", "T1 construct": "recombinant proteins 6xHis-tagged and FLAG-tagged full-length INs were expressed in E. coli; made in house; host or cells: E. coli", "assay": "HTRF-based IN multimerization assay", "assay_type": "biochemical", "conditions": "average with SD of three independent experiments, read-out: In vitro IN multimerization EC50", "experimental": "For biochemical studies, recombinant proteins 6xHis-tagged and FLAG-tagged full-length INs were expressed in E. coli and purified by column chromatography as previously described ([39]). The HTRF-based assay used to monitor inhibitor-induced aberrant multimerization of IN was performed as previously reported ([15], [19]). Briefly, two separate preparations of His-tagged and FLAG-tagged IN proteins were mixed in presence of increasing concentration of the test compounds and incubated for 2.5 h at room temperature. Anti-His6-XL665 and anti-FLAG-EuCryptate antibodies (Cisbio, Inc) were then added to the reaction and incubated at room temperature for 3 h."}, "[2]": {"test_system": "HIV-1", "experimental": "For early stage experiments, viral infectivity of target cells was measured in the presence of increasing concentrations of inhibitors. For late stage, producer cells were transfected in the presence of increasing concentrations of inhibitors, cell-free virions were harvested at 48 h, and the amounts of viral particles produced were measured by p24 concentration essay. Subsequently, the infectivity of these progeny virions was examined without any additional inhibitor being added to the target cells. […] For full viral cycle experiments, the same inhibitor concentrations were added in the producer cells and the target cells ([31]).\nThe EC50 values were determined in single replication cycle as described previously ([17]). […] The virus supernatants were collected 24 h after drug treatment, and p24 concentrations were determined by HIV-1 Gag p24 ELISA (ZeptoMetrix) following manufacturer’s protocol. The target cells were then infected with HIV-1 virions equivalent to 4 ng of HIV-1 p24, in the absence or presence of indicated concentrations of drugs. To measure EC50 values during the early replication stage, DMSO or the inhibitor was added to the target cells 60 min before infection. The cells were cultured for 48 h, and the cell extracts were prepared using reporter lysis buffer (Promega). Luciferase activity was determined using a commercially available kit (Promega). The cytotoxicity assays were performed on noninfected cells using the commercially available CyQUANT XTT Cell Viability Assay (Invitrogen, Inc) by following the manufacturer protocol. The dose–response curves were fitted with a sigmoidal dose–response equation with Hill slope to determine the compound IC50 and CC50 using Origin software (v9.7)."}, "[3]": {"test_system": "noninfected cells", "assay": "CyQUANT XTT Cell Viability cytotoxicity assay", "assay_type": "cell-based"}, "[4]": {"biological_target": "T2, HIV-1 IN-CTD / full-length IN complex (Human immunodeficiency virus type 1 group M subtype B, UniProt P12497)", "T2 construct": "His-tagged CTD-IN and FLAG-tagged full-length IN proteins were mixed; made in house; host or cells: E. coli (stated for the full-length INs)", "assay": "HTRF-based CTD binding assay (His-tagged CTD-IN with FLAG-tagged full-length IN)", "assay_type": "biochemical", "conditions": "200 nM of ALLINI", "source_text": "To detect in isolation the specific contribution of the IN-CTD to the ALLINI-induced IN multimer complex formation, we have modified our published HTRF-based assay (Fig. 3, A and B). In this new analytical assay, anti-His6-XL665 and anti-FLAG-EuCryptate antibodies allow the detection of fluorescence energy transfer only when FLAG-tagged full-length IN protein tightly interacts with a His-tagged IN-CTD construct. Mixing of the proteins and without compound addition generated a small HTRF signal (Fig. 3C, dimethyl sulfoxide [DMSO]) indicating a weak interaction between the full-length IN and the IN-CTD construct. Strikingly, the addition of ALLINI to the assay promoted a significant increase of HTRF signals proportional to the IN multimerization properties of the compound.\nFigure 3 C-terminal domain (CTD) contribution to the ALLINI-induced IN multimer formation.A, schematic of the standard HTRF-based IN multimerization assay. […] C, HTRF signal intensities recorded after the addition of 200 nM of ALLINI to a mixture of Flag tagged full-length IN and His-tagged CTD domain proteins as described in the Methods section. ALLINI, allosteric IN inhibitors; HTRF, homogeneous time resolved fluorescence; IN, integrase.\nThe CTD-IN protein was generated and purified using a published method ([40]). […] The HTRF binding signal between proteins was recorded using a PerkinElmer EnSpire multimode plate reader."}, "[5]": {"test_system": "HIV-1 virions (viral core density)", "assay": "Sucrose density gradient fractionation of detergent-lysed virions (p24 distribution)", "assay_type": "cell-based", "conditions": "1 μM during viral production, versus DMSO; fractions 16–22", "source_text": "We and others have previously observed how ALLINIs interfere with proper virus particle maturation and yield noninfectious particles with eccentrically positioned RNPs. This mislocalization of the RNP to a position located between the low density empty capsid (CA) core and the particle membrane in mature virions has been observed using electron microscopy ([17], [31], [32]). The buoyant sucrose gradient technique that measure the relative density of the viral core of mature virions has also been validated as an effective approach to characterize this mislocalization of the RNP ([17], [33], [34]). […] The CA core density was then detected by measuring the HIV-1 CA (p24) content of each sucrose fraction.\nFor sucrose density gradient fractionation ([17], [33], [34]), cell-free virions produced from HEK293T cells transfected with pNL4-3 in the absence or presence of indicated concentration of ALLINI were concentrated by ultracentrifugation over a 25% sucrose cushion, pelleted virions were lysed with 0.5% Triton X-100 and were ultracentrifuged through a 20% to 70% (wt/vol) linear sucrose density gradient at 28,500 rpm for 16 h at 4C in SW40 rotor (Beckman). […] The relative distribution of HIV-1 capsid was determined by quantifying the Western blot p24 signal. […]"}}, "note": "Read-outs that look alike come from different tables or passages of the source."}
{"smiles": "Cc1nc2ccccc2c(-c2ccc3c(c2)OCCO3)c1C(OC(C)(C)C)C(=O)O", "note": "(stereo not shown) [NGJ-9002]", "values": [{"measurement": "EC50", "setting": "[1]", "value": "110 ± 10", "unit": "nM"}, {"measurement": "PSI (phase specificity index)", "setting": "[2]", "value": 64}, {"measurement": "IC50", "setting": "[2]; read-out: Early IC50", "value": "42000 ± 3000", "unit": "nM"}, {"measurement": "IC50", "setting": "[2]; read-out: Full IC50", "value": "830 ± 50", "unit": "nM"}, {"measurement": "IC50", "setting": "[2]; read-out: Late IC50", "value": "660 ± 30", "unit": "nM"}, {"measurement": "CC50", "setting": "[3]", "value": "> 100000", "unit": "nM"}]}
{"smiles": "COc1ccccc1-c1ccc2c(-c3ccc4c(c3)OCCO4)c(C(OC(C)(C)C)C(=O)O)c(C)nc2c1", "note": "(stereo not shown) [JDH-2110]", "values": [{"measurement": "EC50", "setting": "[1]", "value": "40 ± 10", "unit": "nM"}, {"measurement": "HTRF signal intensity, CTD / full-length IN complex", "setting": "[4]", "value": "higher HTRF than NGJ9002"}, {"measurement": "Effect on HIV-1 capsid (p24) distribution in sucrose density gradient fractions", "setting": "[5]", "value": "reduction of CA signal in high-density fractions"}, {"measurement": "Fold improvement of overall antiviral IC50", "setting": "[2]", "value": "about 30 fold"}, {"measurement": "Fold increase of PSI", "setting": "[2]", "value": 7, "unit": "fold"}, {"measurement": "PSI (phase specificity index)", "setting": "[2]", "value": 465}, {"measurement": "IC50", "setting": "[2]; read-out: Early IC50", "value": "9300 ± 500", "unit": "nM"}, {"measurement": "IC50", "setting": "[2]; read-out: Full IC50", "value": "30 ± 10", "unit": "nM"}, {"measurement": "IC50", "setting": "[2]; read-out: Late IC50", "value": "20 ± 10", "unit": "nM"}, {"measurement": "CC50", "setting": "[3]", "value": "> 100000", "unit": "nM"}]}
